SMILES strings stand for the structures. pIC50: −log10 of the molar value.

A short description of test [1]: Compound was evaluated for cell growth inhibition of human (WI-L2) leukemic cells. In kind it is functional, cell-based. The settings on record: WIL2.
Test [2] addresses T1, Dihydrofolate reductase (Homo sapiens, UniProt P00374).
T1 sequence (P00374 whole entry): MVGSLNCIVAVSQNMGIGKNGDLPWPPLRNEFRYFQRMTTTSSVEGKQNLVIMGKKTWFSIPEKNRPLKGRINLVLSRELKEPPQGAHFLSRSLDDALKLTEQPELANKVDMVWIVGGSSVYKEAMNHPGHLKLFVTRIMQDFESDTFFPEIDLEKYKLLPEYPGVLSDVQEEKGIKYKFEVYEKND
Description: Compound was evaluated for Dihydrofolate Reductase (DHFR) inhibition

Usually pIC50 stands for the negative decadic logarithm of the IC50, by convention in mol/L. A low value points to a high IC50. In the case of `Nc1nc(N)c2nc(CNc3ccc(C(=O)N[C@@H](CCC(=O)O)C(=O)O)cc3)cnc2n1` [AMINOPTERIN], the pIC50 in test [1] is 8.15.

The compound `CN(Cc1cnc2ncnc(N)c2n1)c1ccc(C(=O)NC(CCC(=O)O)C(=O)O)cc1` (stereo not drawn) showed a pIC50 in test [2] of 5.22.

As to `Cc1nc(N)c2nc(CN(C)c3ccc(C(=O)NC(CCC(=O)O)C(=O)O)cc3)cnc2n1` (stereo not drawn), the pIC50 in test [2] was less than 4.70.

The record behind these values is ChEMBL document CHEMBL1125867 (J Med Chem, 1991).
